Results published in patent publication US20140227335A1 (priority 2012, published 2014).

How the values were obtained:
HIV-1 93IN017 = test: HIV infectivity assay in TZM-bl cells; format: cell-based; conditions: 93IN017 (clade C, X4); for IC50: Human immunodeficiency virus 1, TZM-bl
HIV-1 92UG024 = test: HIV infectivity assay in TZM-bl cells; format: cell-based; conditions: 92UG024 (clade D, X4); for IC50: Human immunodeficiency virus 1, TZM-bl
HIV-1 Jv1083 = test: HIV infectivity assay in TZM-bl cells; format: cell-based; conditions: Jv1083 (clade G, R5); for IC50: Human immunodeficiency virus 1, TZM-bl
HIV-1 92RW016 = test: Anti-HIV efficacy in fresh human PBMC (reverse transcriptase activity); format: cell-based; conditions: Human immunodeficiency virus 1, PBMC, 168 h; 92RW016 (clade A, R5); PBMCs, MOI = 0.1, 7 days
HIV-1 92UG029 = test: as above; format: cell-based; conditions: Human immunodeficiency virus 1, PBMC, 168 h; 92UG029 (clade A, X4); PBMCs, MOI = 0.1, 7 days
HIV-1 96USNG31 = test: as above; format: cell-based; conditions: Human immunodeficiency virus 1, PBMC, 168 h; 96USNG31 (clade C, X4/R5); PBMCs, MOI = 0.1, 7 days
HIV-1 92UG001 = test: as above; format: cell-based; conditions: Human immunodeficiency virus 1, PBMC, 168 h; 92UG001 (clade D, X4/R5); PBMCs, MOI = 0.1, 7 days
[1] = test system: Lactobacillus crispatus ATCC 33197; test: Lactobacillus toxicity testing (CFU); format: cell-based
Procedure: (§1) Reference strains of L. crispatus and L. jensenii were obtained from the ATCC (Manassas, Va.) and cultured on Columbia blood agar plates at 35° C. in air enriched with 6% CO2. Bacterial suspensions were prepared in saline or ACES buffer to a density of 2 McFarland units (˜2×10^8 bacteria/mL), and exposed to PD (300 μM) or DMSO (10%) for 30 minutes at 37° C. After incubation, the cells were serially diluted in ACES buffer, pH 7.0 (Sigma-Aldrich, St. Louis, Mo.) and plated on blood agar plates to quantify colony forming unit per mL (CFU/mL)
(§2) Different bacterial strains were incubated with 300 μM PD or solvent DMSO-containing control media at 37° C. for 30 min and plated on blood agar plates to estimate their corresponding colony forming units per ml (CFU/ml). Less than 1 log difference between control and test CFU is considered non-toxic 17.

[2] = test system: Lactobacillus jensenii ATCC 25258; test: Lactobacillus toxicity testing (CFU); format: cell-based
Procedure: as §1, §2

[3] = test system: Lactobacillus jensenii LBP 28Ab; test: Lactobacillus toxicity testing (CFU); format: cell-based
Procedure: as §1, §2

VSV-Gpp [4] = format: cell-based, HIV lentivirus pseudotyped with VSV-G
HCVcc = HCVcc cell attachment assay; format: cell-based, HCV; conditions: 300 μM PD, 37° C., 90 min; cell-bound viral RNA by qRT-PCR
Sindbis virus (SINV) = test: Sindbis virus plaque assay on BHK-J cells; format: cell-based; conditions: 300 μM PD
VSV-Gpp [5] = format: cell-based, HIV lentivirus pseudotyped with VSV-G; remark: listed apart in the source
[6] = Primary cells toxicity testing (LDH); format: cell-based; conditions: human, primary CD4+ T-lymphocytes, macrophages and dendritic cells, up to 14 days
Procedure: Increasing concentrations were incubated with primary CD4^+ T-lymphocytes, macrophages and dendritic cells at 37° C. and the amounts of lactate dehydrogenase (LDH) present in the culture media were quantified after 0, 7 and 14 days. Error bars represent the standard deviation from two independent experiments.
Primary cells were seeded at 6×10^3 cells/well in flat bottom 96-well plates in triplicates in the presence of increasing concentrations of PD. We used the permeabilization agent saponin (0.1%) as positive control. After 0, 7 and 14 days, the amounts of lactate dehydrogenase (LDH) in the cell culture media were quantified using the LDH Cytotoxicity Assay Kit (Cayman Chemical, Ann Arbor, Mich.).
Cell death can occur either by apoptosis or by necrosis. Necrosis is accompanied by mitochondrial swelling and increased plasma membrane permeability, whereas apoptosis involves an articulated breakdown of the cell into membrane-bound apoptotic bodies. Lactate dehydrogenase (LDH) is a soluble cytosolic enzyme that is released into the culture medium following loss of membrane integrity resulting from either apoptosis or necrosis. LDH activity, therefore, can be used as an indicator of cell membrane integrity and serves as a general means to assess cytotoxicity resulting from chemical compounds or environmental toxic factors. […]

[7] = test system: primary isolates of HIV and SIV; test: organism not typed; format: cell-based, HIV-1, HIV-2
VSV-Gpp [8] = test system: VSV-Gpp
[9] = 300 μM PD, less than 1 log difference is considered non-toxic

## N=C1Sc2ccccc2C2=NCCCN12 [PD, PD 404,182]
HIV-1 93IN017; PD in DMEM + 10% FBS
  IC50 (DMEM; IC90 per footnote): 1.9 ± 0.2 µM
  IC50: 0.4 µM
HIV-1 93IN017; PD in cervical fluids
  IC50 (Cervical Fluid; IC90 per footnote): 2.4 ± 0.2 µM
  IC50: 0.7 µM
HIV-1 93IN017; PD in seminal plasma
  IC50 (Seminal Plasma; IC90 per footnote): 2.09 ± 0.19 µM
  IC50: 0.45 µM
HIV-1 92UG024; PD in DMEM + 10% FBS
  IC50 (DMEM; IC90 per footnote): 1.4 ± 0.2 µM
  IC50: 3.33 µM
HIV-1 92UG024; PD in cervical fluids
  IC50 (Cervical Fluid; IC90 per footnote): 1.8 ± 0.2 µM
  IC50: 0.55 µM
HIV-1 92UG024; PD in seminal plasma
  IC50 (Seminal Plasma; IC90 per footnote): 1.58 ± 0.2 µM
  IC50: 0.42 µM
HIV-1 Jv1083; PD in DMEM + 10% FBS
  IC50: 1.1 µM
  IC90: 3.9 ± 0.3 µM
HIV-1 Jv1083; PD in cervical fluids
  IC50: 1.5 µM
  IC90: 4.7 ± 0.1 µM
HIV-1 Jv1083; PD in seminal plasma
  IC50: 1.27 µM
  IC90: 4.22 ± 0.39 µM
HIV-1 92RW016
  IC50: 0.22 µM
  IC90: 0.54 µM
HIV-1 92UG029
  IC50: 1.18 µM
  IC90: 4.67 µM
HIV-1 96USNG31
  IC50: 0.14 µM
  IC90: 1.62 µM
HIV-1 92UG001
  IC50: 1.11 µM
  IC90: 1.89 µM
[1]; [9]
  Log(Control) − Log(PD): −0.019
[1]; 30 min, 37° C.
  CFU of Lactobacillus treated with 300 μM PD: 7,260,000 CFU
[2]; [9]
  Log(Control) − Log(PD): −0.122
[2]; 30 min, 37° C.
  CFU of Lactobacillus treated with 300 μM PD: 7,533,333 CFU
[3]; [9]
  Log(Control) − Log(PD): −0.021
[3]; 30 min, 37° C.
  CFU of Lactobacillus treated with 300 μM PD: 10,033,333 CFU
VSV-Gpp [4]
  VSV-Gpp infectivity remaining: 0.1%
  effect of fetal bovine serum on PD's antiviral activity: no inhibitory effect
  inhibition of VSV-Gpp supernatant infectivity relative to DMSO-treated virus: ~1000 fold
  sensitivity of virus to PD in conditioned medium: significantly less sensitive to inactivation by PD
HCVcc
  attachment of PD-treated HCVcc to cells: binds to cells comparably to control DMSO-treated virus
Sindbis virus (SINV)
  effect on infectivity of SINV: no significant inhibitory effect
VSV-Gpp [5]
  reversal of PD's antiviral effect by liposomes: not able to reverse PD's antiviral effect
[6]
  CC50 at 14 days: > 300 µM
[7]
  effect of seminal plasma on PD's anti-HIV activity: does not negatively impact PD's anti-HIV activity
[7]; Human immunodeficiency virus 1, TZM-bl, read-out: IC50 range over tested subtypes of HIV-1
  IC50: 0.42 to 1.96 µM
[7]; Human immunodeficiency virus 1, TZM-bl, read-out: IC90 range over tested subtypes of HIV-1
  IC90: 1.58 to 7.19 µM
[7]; TZM-bl
  IC50: ~1 µM
[7]; TZM-bl, read-out: IC50 range
  IC50: 0.33 to 1.8 µM
[7]; TZM-bl, read-out: IC90 range
  IC90: 1.4 to 6.6 µM
[7]; read-out: IC50 range
  IC50: 0.61 to 2.3 µM
[7]; read-out: IC90 range
  IC90: 1.8 to 7.5 µM
VSV-Gpp [8]
  activity loss in cervical fluid: no activity loss
